Measured values published in PubChem BioAssay AID2060625 (Molecular Pharmacology Branch, DTP, NCI, 2025).

System: 186277-243-T-J2-PDC spheroids with HUVEC/MSC, viability
Assay: Anticancer human tumor 186277-243-T-J2-PDC patient-derived colon adenocarcinoma cell line growth inhibition [CLK]
Conditions: for IC50: curve of first compound; for viability, T/C: stronger effect = lower value
Text: A high-throughput screen of multi-cell type tumor spheroids was designed to identify active combinations of […] and targeted small molecules. Complex spheroids include a stromal component modeled by human endothelial cells (HUVEC) and fibroblasts modeled by human mesenchymal stem cells (MSCs). The concentration ranges selected for each drug and investigational agent were based upon clinically achievable concentrations if the clinical Cmax of the agent was known.
Compounds. The drugs and investigational agents: cirtuvivint (SM08502; NSC835563), CC-671 (NSC850746), vemurafenib (NSC761431), tapotoclax (NSC804041), sotorasib (NSC818433), adagrasib (NSC831453), MRTX-1133 (NSC836407), BAY2416964 (NSC825713), copanlisib (NSC816437), inavolisib (NSC800729), abemaciclib (NSC768073), osimertinib (NSC779217), entinostat (NSC756642), eltanexor (KPT-8602, NSC794443), venetoclax (NSC766270), ceralasertib (NSC777638), bortezomib (NSC756655), olaparib (NSC753686), talazoparib (NSC767125), alisertib (NSC759677), peposertib (NSC802822), gemcitabine (NSC613327), 5-fluorouracil (NSC19893), SN-38 (NSC673596), oxaliplatin (NSC266046), paclitaxel (NSC125973), and doxorubicin (NSC123127), were obtained from the National Cancer Institute (NCI) Developmental Therapeutics Program Chemical Repository. The FDA-approved anticancer drug set is available from the Developmental Therapeutics Program at https://dtp.cancer.gov/organization/dscb/obtaining/available plates.htm. […] The stock solutions were prepared in dimethyl sulfoxide (DMSO, Sigma-Aldrich, St. Louis, MO, cat. D2650), except for the platinum complexes which were prepared in saline (Quality Biological, Gaithersburg, MD, cat. 114-055-101), at 800-fold the tested concentration and stored at -70 degrees C prior to their use. All drugs and investigational agents were tested over a range starting from a high concentration at or near the clinical Cmax and decreasing in half-log increments. If the clinical Cmax for an agent had not been determined, the highest concentration tested was 10 microM.
Cell Culture. All cells were maintained in an incubator at 37 degrees C and 5% CO2 with 95% humidity. The PDC lines were cultured according to standard operating procedures established by the NCI PDMR. Briefly, all PDCs were thawed and cultured in Matrigel-coated flasks prepared with a working solution of 1X Ham's F-12 nutrient mix, without supplementation (Invitrogen, Waltham, MA, cat. 11765054), 100 U/mL penicillin-streptomycin (Invitrogen, cat. 15140122), and 2.5% Matrigel (Corning Inc., Corning, NY, cat. 354248) for the first three passages. The 947758-054-R-J2-PDC line was cultured in 6B/Colon 1A media, which includes advanced DMEM/F-12 (Thermo Fisher Scientific, cat. 12634028), 10 mM HEPES (Thermo Fisher Scientific, cat. 15630080), 1X GlutaMAX supplement (Thermo Fisher Scientific, cat. 35050061), 0.1 mg/mL primocin (InvivoGen, cat. ant-pm-2), 10% defined fetal bovine serum, heat inactivated (HyClone Laboratories Inc., cat. SH30070.03HI), 1.25 mM N-Acetyl-L-cysteine (Sigma-Aldrich, cat. A9165), 10 mM nicotinamide (Sigma-Aldrich, cat. N0636), 1X B-27 supplement (Thermo Fisher Scientific, cat. 17504044), 1X N-2 supplement (Thermo Fisher Scientific, cat. 17502048), and 10 microM Y-27632 dihydrochloride (Tocris Bioscience, cat. 1254). The 876862-298-R-J1-PDC was cultured in 6E media, which includes all 6B/Colon 1A media components plus 50% L-WRN conditioned media (ATCC, cat. CRL-3276), 50 ng/mL recombinant human EGF recombinant protein (hEGF; Thermo Fisher Scientific, cat. PHG0311), 10 ng/mL recombinant human fibroblast growth factor 10 (hGFG-10; PeproTech, cat. 100-26), 1 ng/mL recombinant human fibroblast growth factor 2 (hFGF-2; PeproTech, cat. 100-18B), and 1 µM prostaglandin E2 (PGE2; Tocris, cat. 2296). The 227483-062-R1-J1-PDC line was cultured in Panc media, containing all 6E components except hFGF-2, with the addition of 500 nM SB-431542 (Selleckchem, cat. S1067) and 10 nM gastrin (Tocris, cat. 3006). […]

[1] = second compound 0.0316 µM, first compound 0.0316 µM
[2] = second compound 0.0316 µM, first compound 0.1 µM
[3] = second compound 0.0316 µM, first compound 0.316 µM
[4] = second compound 0.0316 µM, first compound 1 µM
[5] = second compound 0.0316 µM, first compound 3.16 µM
[6] = second compound 0.0316 µM, first compound 10 µM
[7] = second compound 0.1 µM, first compound 0.0316 µM
[8] = second compound 0.1 µM, first compound 0.1 µM
[9] = second compound 0.1 µM, first compound 0.316 µM
[10] = second compound 0.1 µM, first compound 1 µM
[11] = second compound 0.1 µM, first compound 3.16 µM
[12] = second compound 0.1 µM, first compound 10 µM
[13] = second compound 0.316 µM, first compound 0.0316 µM
[14] = second compound 0.316 µM, first compound 0.1 µM
[15] = second compound 0.316 µM, first compound 0.316 µM
[16] = second compound 0.316 µM, first compound 1 µM
[17] = second compound 0.316 µM, first compound 3.16 µM
[18] = second compound 0.316 µM, first compound 10 µM
[19] = second compound 1 µM, first compound 0.0316 µM
[20] = second compound 1 µM, first compound 0.1 µM
[21] = second compound 1 µM, first compound 0.316 µM
[22] = second compound 1 µM, first compound 1 µM
[23] = second compound 1 µM, first compound 3.16 µM
[24] = second compound 1 µM, first compound 10 µM
[25] = second compound 3.16 µM, first compound 0.0316 µM
[26] = second compound 3.16 µM, first compound 0.1 µM
[27] = second compound 3.16 µM, first compound 0.316 µM
[28] = second compound 3.16 µM, first compound 1 µM
[29] = second compound 3.16 µM, first compound 3.16 µM
[30] = second compound 3.16 µM, first compound 10 µM
[31] = second compound 10 µM, first compound 0.0316 µM
[32] = second compound 10 µM, first compound 0.1 µM
[33] = second compound 10 µM, first compound 0.316 µM
[34] = second compound 10 µM, first compound 1 µM
[35] = second compound 10 µM, first compound 3.16 µM
[36] = second compound 10 µM, first compound 10 µM
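Further: compound exposure lasted seven days before readout.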
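Wherever viability, T/C is given: 100% = DMSO vehicle control wells.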

## C=C(F)C(=O)N1CCN(c2nc(OCC3CCCN3C)nc3c2CCN(c2cccc4cccc(Cl)c24)C3)CC1CC#N (centres undefined) + CN1CCN(c2cc(C(=O)Nc3cc4cc(-c5cnn(C)c5)ccc4cn3)ccn2)CC1
Second compound 0.0316 µM
  IC50: 6630 nM
Second compound 0.1 µM
  IC50: 5050 nM
Second compound 0.316 µM
  IC50: < 31.6 nM
Second compound 1 µM
  IC50: < 31.6 nM
Second compound 3.16 µM
  IC50: < 31.6 nM
Second compound 10 µM
  IC50: < 31.6 nM
[1]
  viability, T/C: 84.2%
[2]
  viability, T/C: 78.5%
[3]
  viability, T/C: 115%
[4]
  viability, T/C: 90.6%
[5]
  viability, T/C: 106%
[6]
  viability, T/C: 24.9%
[7]
  viability, T/C: 82.7%
[8]
  viability, T/C: 76.7%
[9]
  viability, T/C: 81.4%
[10]
  viability, T/C: 95.8%
[11]
  viability, T/C: 83.5%
[12]
  viability, T/C: 1.11%
[13]
  viability, T/C: 25.1%
[14]
  viability, T/C: 27.1%
[15]
  viability, T/C: 30%
[16]
  viability, T/C: 35%
[17]
  viability, T/C: 32%
[18]
  viability, T/C: 1.64%
[19]
  viability, T/C: 1.65%
[20]
  viability, T/C: 0.34%
[21]
  viability, T/C: 1.16%
[22]
  viability, T/C: 0.32%
[23]
  viability, T/C: 0.22%
[24]
  viability, T/C: 2.22%
[25]
  viability, T/C: 1.31%
[26]
  viability, T/C: 1.53%
[27]
  viability, T/C: 1.42%
[28]
  viability, T/C: 1.35%
[29]
  viability, T/C: 1.01%
[30]
  viability, T/C: 1.05%
[31]
  viability, T/C: 0.68%
[32]
  viability, T/C: 1%
[33]
  viability, T/C: 1.19%
[34]
  viability, T/C: 0.79%
[35]
  viability, T/C: 1.52%
[36]
  viability, T/C: 0.2%

## CC(CO)NC(=O)c1cc(-c2ccc(Cl)cc2)nn(-c2cnn(C)c2)c1=O (centres undefined) + CN1CCN(c2cc(C(=O)Nc3cc4cc(-c5cnn(C)c5)ccc4cn3)ccn2)CC1
Second compound 0.0316 µM
  IC50: > 10000 nM
Second compound 0.1 µM
  IC50: > 10000 nM
Second compound 0.316 µM
  IC50: < 31.6 nM
Second compound 1 µM
  IC50: < 31.6 nM
Second compound 3.16 µM
  IC50: < 31.6 nM
Second compound 10 µM
  IC50: < 31.6 nM
[1]
  viability, T/C: 118%
[2]
  viability, T/C: 111%
[3]
  viability, T/C: 96.7%
[4]
  viability, T/C: 102%
[5]
  viability, T/C: 106%
[6]
  viability, T/C: 112%
[7]
  viability, T/C: 106%
[8]
  viability, T/C: 92.2%
[9]
  viability, T/C: 106%
[10]
  viability, T/C: 103%
[11]
  viability, T/C: 107%
[12]
  viability, T/C: 97.3%
[13]
  viability, T/C: 25%
[14]
  viability, T/C: 27.6%
[15]
  viability, T/C: 29.6%
[16]
  viability, T/C: 30.5%
[17]
  viability, T/C: 25.2%
[18]
  viability, T/C: 35.1%
[19]
  viability, T/C: 0.55%
[20]
  viability, T/C: 0.96%
[21]
  viability, T/C: 0.66%
[22]
  viability, T/C: 0.35%
[23]
  viability, T/C: 0.36%
[24]
  viability, T/C: 0.38%
[25]
  viability, T/C: 0.96%
[26]
  viability, T/C: 1.12%
[27]
  viability, T/C: 0.88%
[28]
  viability, T/C: 1.2%
[29]
  viability, T/C: 1.15%
[30]
  viability, T/C: 1.66%
[31]
  viability, T/C: 0.72%
[32]
  viability, T/C: 0.76%
[33]
  viability, T/C: 0.63%
[34]
  viability, T/C: 0.88%
[35]
  viability, T/C: 0.8%
[36]
  viability, T/C: 0.63%
